Source: patent US10111431B2, “Application of biofilm formation inhibiting compounds enhances control of citrus canker” (priority 2013, dated 2018)
Converted amounts (≈) assume the structure as drawn.

Assays:
[1] = tested on: Xac 306 on grapefruit leaves; assay: Plant test in greenhouse, spray inoculation of grapefruit leaves; type: in vivo, Xanthomonas citri subsp. citri
Description: The effect of selected biofilm inhibitors on Xac infection/virulence-was investigated using 20-week-old potted grapefruit (Citrus paradise cv. Duncan grapefruit) plants in a quarantine greenhouse at the Citrus Research and Education Center, Lake Alfred, Fla. Copper (CuSO4, 100 μg/mL), D-leucine (10 mM), IAN (100 μg/mL) and a combination of these compounds were individually prepared in 100 ml of SDW. Bacterial inoculum was prepared by growing Xac 306 on NA plates at 28° C. for 48 h, suspending in SDW, adjusting concentration to approximately OD600=0.3 (5×10^8 CFU/mL). The inoculation was performed by a spray method as described previously (Li and Wang, 2012) with modifications. Briefly, the abaxial surfaces of fully expanded, immature leaves of each plant were sprayed with the following treatments: SDW, Xac 306, and Xac 306 combined with CuSO4 (100 μg/mL), D-leucine (10 mM), IAN (100 μg/mL), or a combination of these compounds. Silwett-L77 (silicone-polyether copolymer, Fisher) was added to each treatment at a 0.03% (V/V) final concentration. After inoculation, the plants were covered with plastic bags for 24 h to maintain a high (>90%) relative humidity and then kept in a greenhouse (approximately 60% relative humidity) for symptom development. All inoculations included a minimum of three immature leaves at a similar developmental stage from each plant, and each treatment comprised four plants. The experiments were repeated three times independently. SDW was applied as a negative control, and Xac306 mixed with SDW as positive control. To determine whether the timing of application of biofilm inhibitors in relation to Xac306 affected canker symptom suppression, the biofilm inhibitors were inoculated on leaves 6 h prior to or after inoculation with Xac306.
For bacterial population assays, the leaves of grapefruit plants were inoculated as described above. Two leaf discs randomly selected from each of three inoculated leaves were cut with a cork borer (0.8 cm in diameter) and then ground in 1 mL of SDW. The suspensions were serially diluted and plated on NA plates containing rifamycin. After incubation at 28° C. for 48 h, bacterial colonies were counted and the number of CFU per square centimeter of leaf tissue was calculated. The assays were repeated three times independently.

[2] = tested on: X. citri subsp. citri strain 306; assay: Determination of minimum inhibitory concentrations (MICs) in NB medium, 96-well plate; type: cell-based, Xanthomonas citri subsp. citri; settings: 48 h
Description: Xac strain 306 was grown in NB at 28° C. with shaking at 200 rpm for 7 h. The cultures were standardized to an OD600 of 0.03 (5×10^7 colony forming unit (CFU)/mL) in NB and then aliquoted into wells of a 96-well plate, 190 μL per well. The initial test concentrations of the compounds were diluted (1:20) in the culture (10 μl of compound in 190 μl of culture) and incubated at 28° C. under stationary conditions. The cultures were monitored at 24 and 48 h at OD600, and the lowest concentration resulting in no growth after 48 h compared to the control samples was defined as the MIC for Xac strain 306. All determinations were conducted in eight replicate wells and repeated three times.

Xac 306 biofilm cells = assay: Resistance of Xac biofilm cells to copper, cell viability assay in glass tubes; type: cell-based, Xanthomonas citri subsp. citri; settings: CuSO4 (1.0 mM) alone, 24 h
Description: The level of copper resistance of biofilms was evaluated using a cell viability assays. Briefly, Xac biofilms were prepared using NB with stationary incubation in glass tubes as described above. After 48 h-incubation, the cultures were removed and bacterial cells attached to the tubes were gently washed three times with SDW. One milliliter of fresh NB with CuSO4 (1.0 mM), D-leucine (10 mM) or IAN (100 μg/mL), or a combination of these compounds was added to each tube. NB alone was used as control. Tubes were kept at room temperature for 24 h and shaken vigorously for 5 min. The suspensions were diluted in 10-fold series, and 10 μL of each dilution spotted in triplicate on NA plate. Plates were incubated at 28° C. for 48 to 72 h prior to assessing bacterial growth. Colonies that grew near the dilution end-point were counted and bacterial populations in the initial suspensions prior to dilution were calculated. Each treatment compromises four replicates and the experiment repeated three times.

Xac306 biofilm formation = assay: Static biofilm formation assay in 96-well polystyrene plates with crystal violet staining; type: cell-based, Xanthomonas citri subsp. citri; settings: 0 to 20 mM for D-leucine and D-serine; 0 to 150 μg/mL for IAN
Description: A static biofilm formation assay in 96-well polystyrene plates coupled with CV staining was performed as previously reported with modifications (Li and Wang, 2011). Briefly, a 96-well polystyrene plate (Nunclon surface, Nuncbrand, Denmark) was prepared with 170 μL NB plus 1.0% glucose per well. Aliquots of 20 μL each of the different concentrations of the tested compound were pipetted into eight wells containing 170 μL of NB plus 1.0% glucose. To each of these wells was added 10 μL of the standardized overnight Xac 306 culture (OD600=1.0). Control wells contained NB plus 1.0% glucose and SDW or 0.1% DMSO as a sterility control, or standardized overnight Xac 306 culture as a growth control. The plate was covered by a MicroWell lid (Nunclon), sealed with parafilm to prevent evaporation and incubated at 28° C. for 48 h without shaking. After incubation, the planktonic growth was measured at OD600. To quantify the amount of biofilms formed on the surfaces of the wells, the culture was removed from the wells. After drying, the wells were washed twice with 200 μl of SDW for 5 min, allowed to dry then 200 μl of 0.1% CV added. After 30 minutes, the CV was removed. The wells were washed with excess SDW to remove unbound CV and air dried in an inverted position for 2 h. Afterward, 200 μl of 95% ethanol was added to the wells and incubated for 30 min at room temperature to elute bound CV. The eluted CV was 2-fold diluted in double distilled water and the absorbance at 590 nm was measured. Each data point was averaged from eight replicate wells.

## O=S(=O)([O-])[O-].[Cu+2] [CuSO4]
[1]; D-leucine 10 mM, IAN 100 μg/mL, CuSO4 100 μg/mL
  level of canker lesions on sprayed leaves: less than that sprayed with the pathogen alone
[1]; grapefruit leaves, 7 to 28 days after inoculation
  log reduction in the number of CFU compared to untreated control: ~1.0 log
[2]; D-leucine 10 mM and IAN 100 μg/mL, planktonic cells, NB medium
  MIC of CuSO4 in the presence of D-leucine and IAN: 250 µM
[2]; D-leucine 10 mM, planktonic cells, NB medium
  MIC of CuSO4 in the presence of D-leucine: 250 µM
[2]; IAN 100 μg/mL, planktonic cells, NB medium
  MIC of CuSO4 in the presence of IAN: 250 µM
[2]; compound alone, NB medium, 28° C., stationary, OD600
  MIC: 500 µM
Xac 306 biofilm cells
  viable cells in biofilms: 3×10^7 CFU/mL

## N[C@H](CO)C(=O)O [D-serine]
[2]; Xanthomonas citri
  MIC: 8000 µM (≈ 841 µg/mL)
Xac306 biofilm formation
  dose dependence of Xac306 biofilm decrease: decreased Xac306 biofilm in a dose-dependent manner
